Laboratory results: patent US10533989B2, “Metabolomics in pneumonia and sepsis” (University of Pittsburgh—Of the Commonwealth System of …, priority 2012, dated 2020)

System: differentiated Thp1 monocytes
Experiment: In-vitro monocyte stimulation, TNFα and IL1β in supernatant by ELISA
Format: cell-based, human
Conditions: for IL-1β in supernatant vs PBS control / TNFα in supernatant vs PBS control: differentiated Thp1 monocytes, 16 h, beta-pseudouridine 10 mM, allantoin 0.3 mg/mL
Text: Among significant metabolites (p<0.05, q<0.1) in our agnostic approach, five nucleic acid metabolites (e.g., beta-pseudouridine, 1-methyladenosine, N-2-methylguanosine, N-6-carbamoylthreonyladenosine, and allantoin) were identified for in vitro monocyte stimulation experiments. See, Table 2. These nucleic acid metabolites may function as damage-associated molecular patterns, and stimulate TNFα and IL1β similar to HMGB-1 and LPS. Bleiblo et al. (2012) “The role of immunostimulatory nucleic acids in septic shock” Int J Clin Exp Med 5:1-23
THP-1 cells (American Type Cell Collection, Manassas, Va., USA) were cultured in suspension in RPMI1640 media (Gibco, Grand Island, N.Y., USA) supplemented with 10% fetal bovine serum, 2 mM L-glutamine, 100 U/mL penicillin, 100 […], and 100 µM sodium pyruvate (all from Gibco). To differentiate the monocytes, 0.33×10^6 cells/mL were suspended in media and treated with 5 ng/mL PMA and then plated. After 48 h, adhered cells were washed three times in PBS and then treated for 16 h with compounds of interest at concentrations described. All compounds were dissolved in endotoxin-free water.
Endotoxin was measured at 61.5-153.8 pg per 250 µL treatment of 10 mM dose beta-pseudouridine, compared to 4,000 pg/mL in LPS-positive control. After 16 h media was collected and TNFα and IL1β levels determined by ELISA (R&D Systems, Minneapolis, Minn., USA) according to manufacturer's instructions. Experiments were repeated after treatment with viral inhibitory peptide of TLR4 (VIPER) and polymyxin B (PMB).

Row | Compound | IL-1β in supernatant vs PBS control | Cytokine (TNFα) stimulation, concentration dependence (beta-pseudouridine 0.0001-10 mM, 16 h (FIG. 5C)) | Cytokine (TNFα) levels in the presence of TLR4-receptor inhibitor VIPER (beta-pseudouridine 10 mM with VIPER (TLR4-antagonist), 16 h (FIG. 5D)) | Cytokine (TNFα) levels in the presence of polymyxin B (beta-pseudouridine 10 mM with polymyxin B (PMB; 10 μM), 16 h (FIG. 5D)) | TNFα in supernatant vs PBS control | IL-1β in supernatant vs PBS control (listed as beta-pseudouridine) | TNFα in supernatant vs PBS control (listed as beta-pseudouridine)
1 | NC(=O)NC1NC(=O)NC1=O (centres unmarked) [allantoin] | significantly increased |  |  |  |  |  | 
2 | O=c1[nH]cc([C@@H]2O[C@H](CO)[C@@H](O)[C@H]2O)c(=O)[nH]1 [pseudouridine] | increased | concentration-dependent | significantly abrogated | remained significantly elevated | increased | stimulated significant release | stimulated significant release
